{
  "source": "patent US20090280166A1",
  "about": "“FERRITIN AS A THERAPEUTIC TARGET IN ABNORMAL CELLS” (The Penn State Research Foundation, priority 2005, published 2009)",
  "key": {"[1]": {"system": "rat primary astrocytes", "test": "Cytotoxicity of iron compound TMHF on transfected astrocytes (MTT)", "format": "cell-based", "conditions": "three concentrations of TMHF", "method": "FIG. 16 is a graph showing the cytotoxicity profile of stress factors on rat primarily astrocytes transfected with NLS and non-NLS H ferritin construct. Cytotoxicity was determined by MTT assay after treatment with three different concentrations of soluble iron compound 3,5,5-trimethyl (hexanoyl) ferrocene (TMHF). A total of 12 trials were run in triplicate for each sample and the grand mean and SE are reported.\nCytotoxicity was determined by MTT assay after treatment with three different concentrations of soluble iron compound 3,5,5-trimethyl (hexanoyl) ferrocene (TMHF). A total of 12 trials were run in triplicate for each sample and the grand mean and SE are reported. […] Other common stressors (hydrogen peroxide, cytokines, hypoxia) will also be examined."}, "[2]": {"system": "primary rat astrocytes", "test": "Longevity of transfected astrocytes (MTT)", "format": "cell-based", "method": "FIG. 15 is a graph showing the results of the longevity of transfected astrocytes versus control. Cells were transfected and then plated at equal density.\nCells were transfected and then plated at equal density. The longevity experiments were performed in two ways. First, cell viability was monitored in cultures in which the media was changed every seven days. In the second experiment, the media was not changed for 30 days to test nutrient deprivation. An MTT assay was performed on randomly selected cell cultures from 24 well plates every two weeks to monitor cell viability. […] The non-transfected astrocytes, however, die at an increased rate compared to the ferritin transfected cells. We have continued the study out to five months on the transfected cells, but none of the non-transfected cells are alive.\nThirdly, the non-NLS ferritin translocated to the nucleus over time."}, "[3]": {"system": "H-ferritin", "test": "Ferritin in nuclear and cytoplasmic fractions after DFO, alloxan and FAC treatments (Western blot)", "format": "cell-based, human", "conditions": "SW1088 cells", "source_text": "FIGS. 9A-9C show nuclear import of ferritin is inhibited by alloxan, whereas cytoplasmic levels of ferritin are not affected. Under resting conditions, SW1088 cells contain ferritin in both nuclear and cytoplasmic compartments. […] The reappearance of ferritin in cytoplasmic and nuclear compartments after DFO treatment (alone) or treatment with DFO+alloxan is affected by the presence of alloxan (alx) and/or FAC in the culture medium. FIG. 9A is a schematic illustration of the experimental procedure, showing the time course of changes in culture conditions. FIG. 9B is a scan of Western blots of nuclear (N) and cytoplasmic (C) extracts of SW1088 cells, resolved by SDS/PAGE. Samples of the nuclear extract contained 20 μg of total protein, whereas samples of the cytoplasmic extract contained […] of total protein. Ferritin was detected with HS-59 mouse monoclonal antibody and horseradish peroxidase-conjugated goat anti-mouse IgG. Lane a, extracts from cells cultured in medium containing 100 μM DFO; lane b, extracts of cells cultured in normal medium; lane c, extracts of cells cultured in 100 μM FAC; lane d, extracts of cells cultured in 100 μM DFO+1 mM alloxan; lane e, extracts of cells cultured in normal medium supplemented with 1 mM alloxan; lane f, extracts of cells cultured in medium supplemented with 100 μM FAC+1 mM alloxan. FIG. 9C is a graph showing a summary of ferritin contents. The relative amounts of ferritin in the nuclear (black bars) and cytoplasmic (striped bars) fractions were measured after an initial treatment with DFO alone or DFO+[…] and a subsequent culture in the presence of DFO alone, normal medium, medium supplemented with FAC, medium supplemented with DFO+alloxan, normal medium+alloxan or normal medium+FAC and alloxan. The relative amounts of ferritin are normalized to the amount of ferritin in the corresponding fractions before the initial DFO treatment.\nDFO and alloxan treatments: The iron chelator DFO was used to examine the effect of iron chelation on ferritin localization in the nuclei of astrocytoma cells. Cells were cultured in the presence of 100 μM DFO for 72 h. Alloxan, an inhibitor of O-glycosylation, was used in astrocytoma cell cultures at final concentrations of 0.1 and 1.0 mM. Six cultures were established in parallel and allowed to reach 80% confluence. The first three were treated with 100 μM DFO for 72 h, then rinsed in Hanks balanced salt solution to remove the free DFO and returned to standard medium alone or to a medium containing 0.1 mM FAC (ferric ammonium citrate) or 0.1 mM DFO. After these treatments, culturing was continued for 24 h. Another set of three cultures were treated with 100 μM DFO+1 mM alloxan for 72 h. The cells were rinsed in Hanks balanced salt solution to remove free reagents and returned to standard medium containing 1 mM alloxan or a medium containing 0.1 mM FAC+[…] or a medium containing 100 μM DFO+1 mM alloxan. After these treatments, the culturing was continued for 24 h. At the end of the culture period, cells were harvested and nuclear and cytosolic fractions were prepared as described below.\nNuclear and cytosolic fractions: Plated astrocytoma cells were rinsed in Hanks balanced salts, trypsinized and the cells were collected by centrifugation (800 g for 10 min). The pelleted cells were rinsed twice in ice-cold PBS buffer [0.01 M sodium phosphate (pH 7.4 at 25° C.), 138 mM NaCl and 2.7 mM KCl] and collected by centrifugation. The cell pellets were resuspended in 20 vol. of 10 mM Hepes (pH 7.9 at 25° C.), 1.5 mM MgCl2, 10 mM NaCl and 0.5 mM DTT (dithiothreitol) containing the following protease inhibitors: AEBSF (1 mM), aprotinin (0.8 μM), leupeptin (20 μM), bestatin (40 μM), pepstatin (15 μM) and E-64 (14 μM). Cell suspensions were incubated in ice for 30 min and collected by centrifugation. […]"}, "[4]": {"system": "protein O-glycosylation in SW1088 human astrocytoma cells", "test": "Detection of O-glycosylated proteins by slot blot with anti-O-GlcNAc antibody", "format": "cell-based", "conditions": "SW1088 cells, 0, 0.1, 0.5 and 1.0 mM alloxan for 96 h", "method": "FIG. 10 is a graph showing alloxan inhibits protein O-glycosylation in SW1088 human astrocytoma cells. Cells were grown in triplicate independent cultures in the presence of 0, 100, 500 μM and 1 mM concentrations of alloxan. Aliquots of whole cell lysates from each culture were applied to a nitrocellulose membrane using a vacuum slot blot device. The membrane was blocked in a 5% solution of non-fat dry milk at 21±1° C. for 1 h and incubated overnight with mouse monoclonal anti-O-GlcNAc antibody. Immunocomplexes were detected and quantified. […]\nDetection of glycosylated proteins: SW1088 cultures were treated with different concentrations of alloxan for 96 h. […] Protein concentrations were measured and aliquots containing 1, 5 and 10 μg of total cell proteins were applied in triplicate to a 0.2 μm nitrocellulose membrane (Amersham Biosciences). […] Immunocomplexes were detected using peroxidase-conjugated goat anti-mouse IgG (Sigma) and visualized with the ECL+kit (Amersham Biosciences). […]\n(§1) The effect of alloxan on ferritin redistribution is probably due to its influence on protein glycosylation or due to some other currently unknown effect. […] The cells were then harvested and total soluble proteins were analyzed by slot blot for O-glycosylation."}, "[5]": {"system": "SW1088 human astrocytoma cells", "test": "Cell viability assay (MTT) of alloxan-treated cells", "format": "cell-based", "conditions": "alloxan up to 1.0 mM, 96 h", "method": "(§2) FIG. 10 is a graph showing alloxan inhibits protein O-glycosylation in SW1088 human astrocytoma cells. Cells were grown in triplicate independent cultures in the presence of 0, 100, 500 μM and 1 mM concentrations of alloxan. Aliquots of whole cell lysates from each culture were applied to a nitrocellulose membrane using a vacuum slot blot device. The membrane was blocked in a 5% solution of non-fat dry milk at 21±1° C. for 1 h and incubated overnight with mouse monoclonal anti-O-GlcNAc antibody. Immunocomplexes were detected and quantified. As an internal control for this assay, membrane loadings of 1 (♦), 5 (▪) and 10 (▴) μg of total protein were tested and they gave similar responses to changes in the concentration of alloxan in the original cultures.\n(§3) Cell viability assay: Cell viability measurement was performed using the reagent 3-(4,5-dimethylthiazol-2-yl)-2,5-diphenyl-2H-tetrazolium bromide (MTT), obtained from Roche Applied Science (Indianapolis, Ind., U.S.A.). The assay was performed according to the manufacturer's instructions.\nas §1"}, "[6]": {"test": "Cell viability assay (MTT) of alloxan-treated cells", "format": "cell-based, human", "conditions": "human, SW1088 astrocytoma cells, 1 mM alloxan, read-out: cells remaining viable (MTT)", "method": "as §2, §3, §1"}, "[7]": {"biological_target": "recombinant human H-ferritin (rH-ferritin) (Homo sapiens, UniProt P02794)", "sequence (P02794 whole entry)": "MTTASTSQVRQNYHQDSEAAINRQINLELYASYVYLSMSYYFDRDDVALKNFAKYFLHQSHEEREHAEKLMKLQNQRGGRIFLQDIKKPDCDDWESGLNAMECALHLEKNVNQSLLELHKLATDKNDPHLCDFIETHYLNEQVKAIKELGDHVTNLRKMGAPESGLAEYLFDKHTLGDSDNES", "test": "Supercoil relaxation assay for iron release from ferritin", "format": "biochemical", "conditions": "rH-ferritin with or without 1 mM alloxan", "method": "Supercoil-relaxation assays were performed with pUC19 plasmid DNA (0.5 μg/assay). FIG. 11A is a scan showing electrophoretic profiles of pUC19 DNA incubated in the presence of recombinant H-ferritin (lanes a-e), recombinant H-ferritin+1 mM alloxan (lanes f-j) and 1 mM alloxan alone (lanes k-o). Reaction times were as indicated. Lane p, a sample of the superhelical pUC19 DNA that was not treated with ferritin. Band assignments: R, relaxed circle form; SC, superhelical topoisomers. FIG. 11B is a graph showing the mole fraction of superhelical DNA as a function of the reaction time for samples containing rH-ferritin (♦), rH-ferritin+1 mM alloxan (▪) and 1 mM alloxan alone (▴). Error bars represent S.D. values.\nSupercoil relaxation assay: DNA backbone breakage was detected using a superhelical DNA relaxation assay (Tachon, P. (1989) Free Radical Res. Commun. 7, 1-10; Crowe, A. and Morgan, E. H. (1992) Brain Res. 592, 8-16). The reaction mixtures (30 μl) contained covalently closed circular pUC19 DNA (0.5 μg; Sigma) dissolved in 10 mM Hepes (pH 7.5), 50 mM NaCl, 2.5 mM MgCl2 and 2.5 mM DTT. […] The mole fractions of superhelical and relaxed forms were measured by densitometry of photographic negatives of the gels after staining with 0.5 μg/ml ethidium bromide. […]"}, "[8]": {"conditions": "100 μM DFO+1 mM alloxan in the initial growth period, then fresh medium"}},
  "note": "Entries after “also recorded” stand apart in the source; their conditions may differ.",
  "data": [
    {"molecule": "ferritin", "values": [
      {"measurement": "ability of astrocytes to withstand iron induced stress", "setting": "[1]", "result": "increases the ability of primary astrocytes to withstand iron induced stress"},
      {"measurement": "survival of transfected cells, media changed", "setting": "[2]; media changed every seven days", "result": "three months"},
      {"measurement": "survival of transfected cells, media not changed", "setting": "[2]; nutrient deprivation, media not changed", "result": 30, "unit": "days"}
    ]},
    {"molecule": "ferric ammonium citrate [FAC]", "values": [
      {"measurement": "increase in nuclear and cytoplasmic ferritin contents relative to levels found in untreated cells", "setting": "[3]; 100 μM FAC added to standard medium after DFO", "result": "approx. 200%"}
    ]},
    {"molecule": "O=C1NC(=O)C(=O)C(=O)N1", "note": "[alloxan]", "values": [
      {"measurement": "total amount of O-glycosylated protein", "setting": "[4]", "result": "decreases the total amount of O-glycosylated protein in a dose-dependent manner"},
      {"measurement": "effect on cell viability", "setting": "[5]", "result": "did not affect cell viability; also recorded: without significant effects on cell viability"},
      {"measurement": "viability at 96 h, 1 mM", "setting": "[6]", "result": "87 ± 3", "unit": "%"},
      {"measurement": "cytoplasmic ferritin after DFO treatment (reappearance)", "setting": "[3]; [8]", "result": "remained essentially unchanged"},
      {"measurement": "reappearance of nuclear ferritin after DFO treatment", "setting": "[3]; [8]", "result": "inhibited"},
      {"measurement": "cytoplasmic ferritin after DFO treatment (reappearance)", "setting": "[3]; 100 μM DFO+1 mM alloxan in the initial growth period, then fresh medium, listed as Alloxan", "result": "no effect"},
      {"measurement": "FAC-induced increase in nuclear ferritin", "setting": "[3]; 100 μM FAC+1 mM alloxan", "result": "blocked"},
      {"measurement": "FAC-induced increase of cytoplasmic ferritin", "setting": "[3]; 100 μM FAC+1 mM alloxan", "result": "not the increase of cytoplasmic ferritin"},
      {"measurement": "disappearance of ferritin from the nuclear fraction when DFO is added", "setting": "[3]; DFO + alloxan", "result": "does not prevent"},
      {"measurement": "iron release from ferritin (DNA nicking of pUC19)", "setting": "[7]", "result": "does not effect the rate or amount of iron release from ferritin; also recorded: does not cause a significant release of iron from ferritin"}
    ]},
    {"molecule": "CC(=O)N(O)CCCCCNC(=O)CCC(=O)N(O)CCCCCNC(=O)CCC(=O)N(O)CCCCCN", "note": "[DFO, desferoxamine]", "values": [
      {"measurement": "ferritin content in nuclear and cytoplasmic compartments", "setting": "[3]; 100 μM DFO", "result": "significantly decreases ferritin content in both compartments"}
    ]}
  ]
}
